Legend:
HPV16 pseudovirus [1] = test: microbe, parasite or virus in culture; assay type: cell-based; conditions: Human papillomavirus 16, HaCaT, read-out: IC50, HPV16 pseudovirus infection
Description: (§1) FIG. 2. Dose dependence inhibition of HPV16 pseudovirus infection in a human keratinocyte cell line (HaCaT). Graphed are the dose-dependent effects of lead compounds shown in Table 2 on the efficiency of infection by HPV16 pseudovirus scored by measuring luciferase reporter activity (squares) as well as their effects on cell viability (circles).
(§2) All but one of these compounds (6 is […]) were repurchased and subjected to a tertiary screen performed in the human keratinocyte cell line, HaCaT, and using HPV16 pseudoviruses encoding a third reporter gene, firefly luciferase, transcribed from a different, E1a, promoter.
The infectivity assay was repeated at least twice and each assay was performed in replicate (n≥3).
(§3) At 4 hours prior to exposure of cell to pseudoviruses, compounds were added to plates in 1% DMSO final concentration at the indicated amounts. Four hours later, 10 multiplicity of infection (M.O.I.) units of HPV16 pseudovirus carrying the plasmid LucF was added to the cells. 72 hours later, cells were lysed and luciferase assays performed using the Luciferase Assay System (Promega Cat. #E1501). For infection studies with HPV11 and HPV31 pseudoviruses, 200 virus genome equivalents (vge) of virus per cell were used. Cell viability was assessed in parallel plates by Luminescent Cell Viability Assay (Promega Cat. #G7571).

HPV16 pseudoviruses = test: Virus particle subcellular localization, fluorescently labeled HPV16 pseudovirus; assay type: cell-based; conditions: 24 hours post infection
Experimental: FIG. 6. Localization of HPV16 pseudovirions 24 hours post infection. Shown are representative confocal images of cells exposed to cyberXX-labeled HPV16 pseudovirus in the absence (FIG. 6B) or presence of Compound 13 (FIG. 6C) and Compound 14 (FIG. 6D). FIG. 6A is a mock infection negative control. Nuclei are stained.
Mechanism of action of Compounds 13 and 14. To begin to assess the mechanism by which Compounds 13 and 14 inhibit HPV infection, we performed fluorescent microscopy studies on cells treated or not treated with Compounds 13 and 14 that were exposed to HPV16 pseudoviruses in which the encapsidated DNA was labeled with a fluorescent intercalating agent. […] At 24 hours post infection we observed a typical perinuclear staining for the fluorescently labeled HPV16 pseudoviruses in both the untreated and drug treated cells.
Virus particle sub cellular localization studies: A target DNA was labeled with Syto-14 (Invitrogen, 25 NM) in 293FT cells before virus was being packaged. HaCaT cells were infected with the labeled HPV pseudovirus for 24 hours, harvested, and fixed with 1% formaldehyde for 30 minutes, followed by permeabilization with 0.2% Triton X-100 for 10 minutes. Cells were blocked with Image-IT FX Signal Enhancer (Invitrogen) for 30 minutes and incubated with rabbit anti-lamin B1 (ab16048, Abcam) antibodies. […] Virus localization was determined by fluorescence.

in vitro = conditions: human, Viability (CelTiter Glow)
[2] = tested on: HPV16, HPV11, and HPV31 pseudovirus; test: Infection by HPV16, HPV11 and HPV31 pseudovirus in HaCaT cells (all genotypes together); assay type: cell-based, HPV; conditions: for IC50 in words for all three HPV pseudovirus infections: HPV16, HPV11, HPV31, 0.1 to 100 μM; for Concentration that completely inhibited all the tested genotypes: HPV16, HPV11, HPV31 pseudovirus
Experimental: (§4) FIG. 4. Compounds 13 and 14 can inhibit infection by multiple anogenital HPVs. Shown are results from infection experiments in HaCaT cells monitoring the efficiency of infection by HPV16, HPV11 and HPV31 pseudovirus carrying the firefly luciferase gene in the absence (0 μM, vehicle only) or increasing concentrations (0.1 to 100 μM) of Compound 13 or 14. The Y axis is the relative efficiency of infection (squares) or cell viability (circles) as a function of drug concentration (X axis). All data points represent the average of values from triplicate samples. […] Data for HPV16 is the also plotted in FIG. 2.
Infection experiments in human keratinocyte cell line, HaCaT, monitoring the efficiency of infection by HPV16, HPV11, and HPV31 pseudovirus carrying the firefly luciferase gene were conducted in the absence or increasing concentrations (0.1 to 100 μM) of Compounds 13 and 14 (see FIG. 4).
In vitro data were collected at 3 μM concentration. […] A human treatment dosage is preferably between 0.1 μM and 100 mM, more preferably between 1 and 10 mM.
as §3

HPV31 pseudoviruses = test: HPV31 pseudovirus infection in HaCaT cells; assay type: cell-based
Experimental: as §4
Compounds 13 and 14: inhibition of infection by multiple papillomavirus genotypes. The goal of this study is to identify compounds that inhibit all sexually transmitted HPVs. For this reason, we monitored the ability of Compounds 13 and 14 to inhibit infection of two additional papillomavirus pseudoviruses that were generated using the capsid proteins of two other sexually transmitted HPVs, high risk HPV31 and low risk HPV11. […]
At 4 hours prior to exposure of cell to pseudoviruses, compounds were added to plates in 1% DMSO final concentration at the indicated amounts. […] Cell viability was assessed in parallel plates by Luminescent Cell Viability Assay (Promega Cat. #G7571).

HPV16 pseudovirus [3] = test: Luciferase assay: HPV16 pseudovirus with renilla luciferase reporter (HPV16wpA-RL); conditions: renilla luciferase reporter behind HPV16 promoter
Experimental: The protocol for the secondary screen was identical to that of the primary screen with the exception that all volumes were scaled up by a factor of four. RL activity was measured using the Renilla Luciferase Assay System (Promega).

HaCaT cells = assay type: cell-based, human; conditions: for CD50 (cytotoxicity): human, 76 h
Description: as §1, §2, §3

SMILES	IC50 (HPV16 pseudovirus [1])	Step at which the compound inhibits infection (entry of labeled pseudovirus) (HPV16 pseudoviruses)	viability at 52 h, 3 μM (in vitro)	IC50 in words for all three HPV pseudovirus infections [2]	Concentration that completely inhibited all the tested genotypes [2]	IC50 (HPV31 pseudoviruses)	Luciferase assay RL % Average (HPV16 pseudovirus [3])	Toxicity / cytotoxicity in words (HaCaT cells)	CD50 (cytotoxicity) (HaCaT cells)
CCCn1c2ccccc2c2nnc(SC(CC)C(=O)Nc3ccc(Cl)cn3)nc21 (stereo not drawn) [Compound 13, N-(5-chloro-2-pyridinyl)-2-[(5-propyl-5H-[1,2,4]triazino[5,6-b]indol-3-yl)thio]butanamide]	0.8 µM	function post-entry	102%	Submicromolar	10 µM	0.15 µM	150.17%	little to no cytotoxicity	25 µM
Cc1cc(C(c2ccc(F)cc2)c2cc(C)c(NC(=O)c3ccccc3)c(C)c2)cc(C)c1NC(=O)c1ccccc1 [Compound 14, N,N′[[(4-fluorophenyl)methylene]bis(2,6-dimethyl-4,1-phenylene)]dibenzamide]	0.2 µM	function post-entry	110%	Submicromolar	4 µM	< 0.1 µM	37.54%	little to no cytotoxicity	> 100 µM
